For data set [1], the target named is T1, PDE4B (Homo sapiens, UniProt Q07343).
T1 construct: hex-histidine (His6) (N); made in house
Nature of the data set: PDE/AK Biological Activity Assay (coupled PDE/adenylate kinase bioluminescent assay). The format is biochemical. The note with it: catalytic domain of PDE4B, read-out: PDE4 Enzyme IC50. The text has this:
Phosphodiesterases regulate the activity of the second messenger cyclic adenosine monophosphate (cAMP) by hydrolyzing cAMP to adenosine monophosphate (AMP). We developed a coupled PDE/AK bioluminescent high-throughput assay to measure the activity of phosphodiesterases. In the PDE/AK assay, the AMP produced from the hydrolysis of cAMP by phosphodiesterase is converted to adenosine diphosphate (ADP) by the phosphotransferase activity of adenylate kinase (also known as ADK or myokinase). Adenylate kinase will catalyze the conversion of 1 mole of AMP and 1 mole of ATP into 2 moles of ADP. Thus the conversion of AMP to ADP will result in the subsequent loss of ATP. The decrease in ATP concentration can be monitored as light output using luciferase in a reaction that requires ATP to produce light. The PDE/AK assay uses luciferase, which catalyzes the production of light from ATP present in the reaction mix. The amount of emitted light is inversely proportional to the level of AMP present in the reaction. Test compounds are incubated with the phosphodiesterases and phosphodiesterase inhibitors will decrease the rate of cAMP hydrolysis and decrease the subsequent production of AMP. Thus phosphodiesterase inhibitors will decrease the conversion of ATP to ADP and result in the greatest emission of light.
Compounds may be screened for functional potency in in vitro biochemical assays for their ability to inhibit the activity of phosphodiesterase (PDE) enzymes. A coupled PDE/AK assay was utilized to measure the inhibitory activity of compounds on PDE isoforms. The catalytic domain of PDE4B was fused to an amino-terminus hex-histidine affinity tag and purified. PDE4B enzyme was incubated with compounds for 10 minutes. Cyclic AMP substrate, ATP and adenylate kinase were then added to the PDE enzyme mix and incubated for 45 minutes at room temperature. A commercial ATP detection assay, Perkin Elmer's easyLite ATP detection reagent, was then added to measure the relative amount of ATP present in the reaction. After 10 minute incubation, the luminescent signal was quantitated with either the Perkin Elmer Viewlux or Molecular Devices Acquest or Analyst. Roflumilast and Rolipram are the positive controls used in the assay.

The nature of data set [2]: Solubility Protocol. The format is physicochemical. The note with it: aqueous buffer, thermodynamic from solid; pH 7.4, 0.1 M sodium phosphate buffer. As to the method: About 5 mg of a compound was mixed with 500 μL of pH 7.4, 0.1 M sodium phosphate buffer. The mixture was adjusted to the original pH of 7.4 and then mixed overnight or longer via rotary mixing. The sample was checked for pH and then filtered through a 0.45 μm filter. If the pH drifted away, the sample was adjusted to its original pH and mixed for at least 15 minutes before filtration. The filtrate was analyzed using HPLC.

pIC50: −log10 of the molar value.

T1 sequence (Q07343 330-659 limits assumed, species assumed): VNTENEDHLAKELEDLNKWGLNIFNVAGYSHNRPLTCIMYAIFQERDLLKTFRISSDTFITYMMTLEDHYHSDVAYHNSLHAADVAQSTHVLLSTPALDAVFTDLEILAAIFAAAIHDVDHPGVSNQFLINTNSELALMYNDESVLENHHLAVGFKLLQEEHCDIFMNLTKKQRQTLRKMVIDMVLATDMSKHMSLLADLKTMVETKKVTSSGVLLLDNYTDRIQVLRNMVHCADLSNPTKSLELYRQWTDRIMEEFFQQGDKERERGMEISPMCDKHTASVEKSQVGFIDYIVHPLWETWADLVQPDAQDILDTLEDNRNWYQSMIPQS

For the molecule `COc1ccc2c(Nc3c(Cl)cncc3Cl)cc(=O)[nH]c2c1OCCCCCCNCCCO` [Example 32, 4-(3,5-Dichloropyridin-4-ylamino)-8-(6-(3-hydroxypropylamino)hexyloxy)-7-methoxyquinolin-2(1H)-one], the pIC50 (commonly the IC50 on a negative log10 scale, so that one unit is a factor of ten) in data set [1] was more than 6.00. In addition, in data set [2], the solubility (in general, how much of the substance goes into solution per volume) is not below 1000 µg/mL. The corresponding values for `COc1ccc2c(Nc3c(Cl)cncc3Cl)cc(=O)[nH]c2c1OCCCn1ccnc1` [Example 62, 8-(3-(1H-imidazol-1-yl)propoxy)-4-(3,5-dichloropyridin-4-ylamino)-7-methoxyquinolin-2(1H)-one] are more than 6.00 and not below 1000 µg/mL. Take `COc1ccc2c(Nc3c(C)cncc3C)cc(=O)[nH]c2c1OCCCCCO` [Example 83, 4-(3,5-dimethylpyridin-4-ylamino)-8-(5-hydroxypentyloxy)-7-methoxyquinolin-2(1H)-one]: the negative-log IC50 (pIC50) in data set [1] is more than 6.00. Turning to `COc1ccc2c(Nc3c(C)cncc3C)cc(=O)[nH]c2c1OCCCCO` [Example 82, 4-(3,5-dimethylpyridin-4-ylamino)-8-(4-hydroxybutoxy)-7-methoxyquinolin-2(1H)-one], in data set [1], the pIC50 is more than 6.00. For the molecule `COc1ccc2c(Nc3c(C)cncc3C)cc(=O)[nH]c2c1OCCCCN(C)C` [Example 44, 8-(4-(dimethylamino)butoxy)-4-(3,5-dimethylpyridin-4-ylamino)-7-methoxyquinolin-2(1H)-one], the pIC50 in data set [1] was more than 6.00. As to `COc1ccc2c(Nc3c(Cl)cncc3Cl)cc(=O)[nH]c2c1OCCCCC(=O)N[C@@H](CC(=O)O)C(=O)O` [Example 66, (S)-2-(5-(4-(3,5-dichloropyridin-4-ylamino)-7-methoxy-2-oxo-1,2-dihydroquinolin-8-yloxy)pentanamido)succinic acid], the pIC50 in data set [1] was more than 6.00. Besides, the solubility in data set [2] is not below 1000 µg/mL.

For the molecule `COc1ccc2c(Nc3c(Cl)cncc3Cl)cc(=O)[nH]c2c1OCCCCCCN(C)CCO` [Example 30, 4-(3,5-Dichloropyridin-4-ylamino)-8-(6-((2-hydroxyethyl)(methyl)amino)hexyloxy)-7-methoxyquinolin-2(1H)-one], the pIC50 in data set [1] was more than 6.00. The molecule also showed a solubility in data set [2] not below 1000 µg/mL. Regarding `COc1ccc2c(Nc3c(Cl)cncc3Cl)cc(=O)[nH]c2c1OCCCOCCOCCO` [Example 98, 4-(3,5-dichloropyridin-4-ylamino)-8-(3-(2-(2-hydroxyethoxy)ethoxy)propoxy)-7-methoxyquinolin-2(1H)-one], the pIC50 in data set [1] is more than 6.00. For `COc1ccc2c(Nc3c(C)cncc3C)cc(=O)[nH]c2c1OCC(C)C` [Example 12, 4-(3,5-Dimethylpyridin-4-ylamino)-8-isobutoxy-7-methoxyquinolin-2(1H)-one], the solubility in data set [2] was not below 1000 µg/mL. For `COc1ccc2c(Nc3c(C)cncc3C)cc(=O)[nH]c2c1OCCCCc1nn[nH]n1` [Example 86, 8-(4-(2H-tetrazol-5-yl)butoxy)-4-(3,5-dimethylpyridin-4-ylamino)-7-methoxyquinolin-2(1H)-one], the pIC50 in data set [1] is more than 6.00. In the case of `COc1ccc2c(Nc3c(Cl)cncc3Cl)cc(=O)[nH]c2c1OCCCOCCOCCOCCO` [Example 96, 4-(3,5-dichloropyridin-4-ylamino)-8-(3-(2-(2-(2-hydroxyethoxy)ethoxy)ethoxy)propoxy)-7-methoxyquinolin-2(1H)-one], the pIC50 in data set [1] is more than 6.00. As for `COc1ccc2c(Nc3c(C)cncc3C)cc(=O)[nH]c2c1OCCCCC(=O)O` [Example 72, 5-(4-(3,5-dimethylpyridin-4-ylamino)-7-methoxy-2-oxo-1,2-dihydroquinolin-8-yloxy)pentanoic acid], the pIC50 in data set [1] is more than 6.00. Further, in data set [2], the solubility is not below 1000 µg/mL.

As to `COc1ccc2c(Nc3c(Cl)cncc3Cl)cc(=O)[nH]c2c1OCCCCCO` [Example 42, 4-(3,5-dichloropyridin-4-ylamino)-8-(5-hydroxypentyloxy)-7-methoxyquinolin-2(1H)-one], the pIC50 in data set [1] was more than 6.00. The molecule also returned a solubility in data set [2] not below 1000 µg/mL.

On to `COc1ccc2c(Nc3c(Cl)cncc3Cl)cc(=O)[nH]c2c1OCCCCC(=O)NCC(=O)O` [Example 94, 2-(5-(4-(3,5-dichloropyridin-4-ylamino)-7-methoxy-2-oxo-1,2-dihydroquinolin-8-yloxy)pentanamido)acetic acid], for which the pIC50 in data set [1] is more than 6.00. On to `COc1ccc2c(Nc3c(Cl)cncc3Cl)cc(=O)[nH]c2c1OCCCCCN1CCN(C)CC1` [Example 47, 4-(3,5-dichloropyridin-4-ylamino)-7-methoxy-8-(5-(4-methylpiperazin-1-yl)pentyloxy)quinolin-2(1H)-one], for which the pIC50 in data set [1] is more than 6.00. Further, the solubility in data set [2] is not below 1000 µg/mL. For `COc1ccc2c(Nc3c(C)cncc3C)cc(=O)[nH]c2c1OCCCCCCC(=O)O` [Example 74, 7-(4-(3,5-dimethylpyridin-4-ylamino)-7-methoxy-2-oxo-1,2-dihydroquinolin-8-yloxy)heptanoic acid] the same measures were more than 6.00 and not below 1000 µg/mL.

As to `COc1ccc2c(Nc3c(Cl)cncc3Cl)cc(=O)[nH]c2c1OCCCCC(=O)N[C@@H](Cc1c[nH]cn1)C(=O)O` [Example 95, (S)-2-(5-(4-(3,5-dichloropyridin-4-ylamino)-7-methoxy-2-oxo-1,2-dihydroquinolin-8-yloxy)pentanamido)-3-(1H-imidazol-4-yl)propanoic acid], the pIC50 in data set [1] was more than 6.00. Take `COc1ccc2c(Nc3c(C)cncc3C)cc(=O)[nH]c2c1OCCCO` [Example 81, 4-(3,5-dimethylpyridin-4-ylamino)-8-(3-hydroxypropoxy)-7-methoxyquinolin-2(1H)-one]: in data set [1], the pIC50 is more than 6.00. In the case of `COc1ccc2c(Nc3c(C)cncc3C)cc(=O)[nH]c2c1OCCCCCCc1nn[nH]n1` [Example 88, 8-(6-(2H-tetrazol-5-yl)hexyloxy)-4-(3,5-dimethylpyridin-4-ylamino)-7-methoxyquinolin-2(1H)-one], the pIC50 in data set [1] was more than 6.00.

Regarding `COc1ccc2c(Nc3c(C)cncc3C)cc(=O)[nH]c2c1OCCCCCc1nn[nH]n1` [Example 87, 8-(5-(2H-tetrazol-5-yl)pentyloxy)-4-(3,5-dimethylpyridin-4-ylamino)-7-methoxyquinolin-2(1H)-one], in data set [1], the pIC50 is more than 6.00.

As to `COc1ccc2c(Nc3c(C)cncc3C)cc(=O)[nH]c2c1OCCCCCCO` [Example 84, 4-(3,5-dimethylpyridin-4-ylamino)-8-(6-hydroxyhexyloxy)-7-methoxyquinolin-2(1H)-one], the pIC50 in data set [1] is more than 6.00. Still for that read-out and setting: in the case of `CCN1CCN(CCCCCCOc2c(OC)ccc3c(Nc4c(Cl)cncc4Cl)cc(=O)[nH]c23)CC1` [Example 23, 4-(3,5-dichloropyridin-4-ylamino)-8-(6-(4-ethylpiperazin-1-yl)hexyloxy)-7-methoxyquinolin-2(1H)-one] it was more than 6.00; in that of `COc1ccc2c(Nc3c(C)cncc3C)cc(=O)[nH]c2c1OCCCCCCN1CCN(C)CC1` [Example 34, 4-(3,5-Dimethylpyridin-4-ylamino)-7-methoxy-8-(6-(4-methylpiperazin-1-yl)hexyloxy)quinolin-2(1H)-one], more than 6.00; in that of `COc1ccc2c(Nc3c(Cl)cncc3Cl)cc(=O)[nH]c2c1OCCCCCCN(C)CCN(C)C` [Example 24, 4-(3,5-dichloropyridin-4-ylamino)-8-(6-((2-(dimethylamino)ethyl)(methyl)amino)hexyloxy)-7-methoxyquinolin-2(1H)-one], more than 6.00. The same measure, in the same setting: in the case of `COc1ccc2c(Nc3c(C)cncc3C)cc(=O)[nH]c2c1OCCCc1nn[nH]n1` [Example 85, 8-(3-(2H-tetrazol-5-yl)propoxy)-4-(3,5-dimethylpyridin-4-ylamino)-7-methoxyquinolin-2(1H)-one] it was more than 6.00; in that of `COc1ccc2c(Nc3c(Cl)cncc3Cl)cc(=O)[nH]c2c1OCCCCCCN(CCO)CCO` [Example 31, 8-(6-(Bis(2-hydroxyethyl)amino)hexyloxy)-4-(3,5-dichloropyridin-4-ylamino)-7-methoxyquinolin-2(1H)-one], more than 6.00; in that of `COCCOCCOCCOCCCOc1c(OC)ccc2c(Nc3c(Cl)cncc3Cl)cc(=O)[nH]c12` [Example 97, 8-(2,5,8,11-tetraoxatetradecan-14-yloxy)-4-(3,5-dichloropyridin-4-ylamino)-7-methoxyquinolin-2(1H)-one], more than 6.00. Turning to `COc1ccc2c(Nc3c(Cl)cncc3Cl)cc(=O)[nH]c2c1OCCCCCCNC(=N)N` [Example 63, 1-(6-(4-(3,5-dichloropyridin-4-ylamino)-7-methoxy-2-oxo-1,2-dihydroquinolin-8-yloxy)hexyl)guanidine], the pIC50 in data set [1] was more than 6.00.
